What was measured:
Assay in all cases: Carna kinase panel screen
Type in all cases: biochemical
Conditions in all cases: read-out: % Inhibition ± SD
LYNb = target: T1, LYNb (Homo sapiens, UniProt P07948)
T1 construct: purchased Carna Biosciences
How it was run: (§1)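 Ten-point dose-response, ATP ≈ Km. % inhibition vs concentration → 4-parameter logistic fit → IC50.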

BRSK1 = target: T2, BRSK1 (Homo sapiens, UniProt Q8TDC3)
T2 construct: purchased Carna Biosciences
How it was run: as §1

MAP3K4 = target: T3, MAP3K4 (Homo sapiens, UniProt Q9Y6R4)
T3 construct: purchased Carna Biosciences
How it was run: as §1

PKR = target: T4, PKR (Homo sapiens, UniProt P19525)
T4 construct: purchased Carna Biosciences
How it was run: (§2)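 Read-out is percent inhibition, plotted against compound concentration and fitted to a four-parameter logistic model to give IC50. Curves comprised 10 points, with ATP approximating Km.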

PDGFRb = target: T5, PDGFRb (Homo sapiens, UniProt P09619)
T5 construct: purchased Carna Biosciences
How it was run: as §1

PKN1 = target: T6, PKN1 (Homo sapiens, UniProt Q16512)
T6 construct: purchased Carna Biosciences
How it was run: as §1

CLK2 = target: T7, CLK2 (Homo sapiens, UniProt P49760)
T7 construct: purchased Carna Biosciences
How it was run: as §1

AXL = target: T8, AXL (Homo sapiens, UniProt P30530)
T8 construct: purchased Carna Biosciences
How it was run: as §1

FAK = target: T9, FAK (Homo sapiens, UniProt Q05397)
T9 construct: purchased Carna Biosciences
How it was run: as §1

ZAP70 = target: T10, ZAP70 (Homo sapiens, UniProt P43403)
T10 construct: purchased Carna Biosciences
How it was run: as §1

GSK3b = target: T11, GSK3b (Homo sapiens, UniProt P49841)
T11 construct: purchased Carna Biosciences
How it was run: as §1

IRAK4 = target: T12, IRAK4 (Homo sapiens, UniProt Q9NWZ3)
T12 construct: purchased Carna Biosciences
T12 sequence (Q9NWZ3 whole entry): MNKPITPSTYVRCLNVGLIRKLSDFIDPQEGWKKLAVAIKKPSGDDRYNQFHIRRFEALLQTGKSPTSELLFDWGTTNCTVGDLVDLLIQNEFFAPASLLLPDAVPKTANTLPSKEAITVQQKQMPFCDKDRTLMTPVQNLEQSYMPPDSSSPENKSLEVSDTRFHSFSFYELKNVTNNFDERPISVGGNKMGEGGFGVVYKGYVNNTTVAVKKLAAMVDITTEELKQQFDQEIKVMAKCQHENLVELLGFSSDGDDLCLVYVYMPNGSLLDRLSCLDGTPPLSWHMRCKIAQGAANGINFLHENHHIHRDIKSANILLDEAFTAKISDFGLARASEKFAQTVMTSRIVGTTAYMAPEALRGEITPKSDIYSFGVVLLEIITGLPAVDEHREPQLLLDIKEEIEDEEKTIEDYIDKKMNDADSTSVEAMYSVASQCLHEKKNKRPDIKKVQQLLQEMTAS
How it was run: as §1

BMX = target: T13, BMX (Homo sapiens, UniProt P51813)
T13 construct: purchased Carna Biosciences
How it was run: as §1

JAK1 = target: T14, JAK1 (Homo sapiens, UniProt P23458)
T14 construct: purchased Carna Biosciences
How it was run: as §1

EphA1 = target: T15, EphA1 (Homo sapiens, UniProt P21709)
T15 construct: purchased Carna Biosciences
T15 sequence (P21709 26-976): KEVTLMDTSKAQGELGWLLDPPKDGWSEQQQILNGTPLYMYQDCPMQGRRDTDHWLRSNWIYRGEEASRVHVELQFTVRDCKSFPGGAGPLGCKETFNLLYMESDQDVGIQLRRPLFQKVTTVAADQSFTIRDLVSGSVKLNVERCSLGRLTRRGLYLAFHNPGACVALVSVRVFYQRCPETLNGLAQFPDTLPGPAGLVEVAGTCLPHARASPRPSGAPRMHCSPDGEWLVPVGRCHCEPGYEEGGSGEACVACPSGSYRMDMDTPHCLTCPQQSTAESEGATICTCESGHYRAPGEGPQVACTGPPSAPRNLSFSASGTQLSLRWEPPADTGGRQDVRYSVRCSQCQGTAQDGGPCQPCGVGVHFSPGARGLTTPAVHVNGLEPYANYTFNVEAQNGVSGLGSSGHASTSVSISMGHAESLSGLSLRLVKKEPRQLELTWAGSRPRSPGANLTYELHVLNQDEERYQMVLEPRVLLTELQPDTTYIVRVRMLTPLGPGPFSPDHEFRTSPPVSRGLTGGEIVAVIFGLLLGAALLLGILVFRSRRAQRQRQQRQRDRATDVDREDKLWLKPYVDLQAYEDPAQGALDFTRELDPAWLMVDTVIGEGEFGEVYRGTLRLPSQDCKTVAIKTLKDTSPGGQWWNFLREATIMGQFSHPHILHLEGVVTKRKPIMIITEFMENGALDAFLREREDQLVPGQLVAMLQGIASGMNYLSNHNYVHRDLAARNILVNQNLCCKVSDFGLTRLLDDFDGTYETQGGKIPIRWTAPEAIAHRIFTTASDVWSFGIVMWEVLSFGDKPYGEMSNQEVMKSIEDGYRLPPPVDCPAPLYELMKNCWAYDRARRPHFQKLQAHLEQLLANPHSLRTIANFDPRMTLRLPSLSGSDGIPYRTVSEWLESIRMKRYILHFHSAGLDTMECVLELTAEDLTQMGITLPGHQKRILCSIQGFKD
How it was run: as §1

TIE2 = target: T16, TIE2 (Homo sapiens, UniProt Q02763)
T16 construct: purchased Carna Biosciences
How it was run: as §2

AMPKa2 = target: T17, AMPKa2 (Homo sapiens, UniProt P54646)
T17 construct: purchased Carna Biosciences
How it was run: as §1

CDK6 = target: T18, CDK6 (Homo sapiens, UniProt Q00534)
T18 construct: purchased Carna Biosciences
T18 sequence (Q00534 whole entry): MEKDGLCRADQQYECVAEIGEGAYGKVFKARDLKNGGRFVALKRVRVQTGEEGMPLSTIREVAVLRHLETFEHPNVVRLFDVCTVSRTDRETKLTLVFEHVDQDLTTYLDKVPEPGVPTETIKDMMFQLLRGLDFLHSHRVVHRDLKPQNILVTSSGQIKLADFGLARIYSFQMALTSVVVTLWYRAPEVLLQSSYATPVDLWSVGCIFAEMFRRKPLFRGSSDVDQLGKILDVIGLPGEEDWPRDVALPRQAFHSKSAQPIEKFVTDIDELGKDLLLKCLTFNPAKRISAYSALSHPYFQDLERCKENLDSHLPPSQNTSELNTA
T18 sequence (P30281 whole entry partner): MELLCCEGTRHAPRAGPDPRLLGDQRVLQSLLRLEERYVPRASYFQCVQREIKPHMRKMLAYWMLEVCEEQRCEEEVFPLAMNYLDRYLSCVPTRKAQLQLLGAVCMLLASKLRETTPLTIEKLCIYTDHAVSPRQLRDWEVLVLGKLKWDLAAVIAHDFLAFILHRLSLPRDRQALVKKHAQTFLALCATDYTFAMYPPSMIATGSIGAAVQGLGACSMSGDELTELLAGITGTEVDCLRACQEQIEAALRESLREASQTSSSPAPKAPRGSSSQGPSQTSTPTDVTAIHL
How it was run: as §2

RON = target: T19, RON (Homo sapiens, UniProt Q04912)
T19 construct: purchased Carna Biosciences
How it was run: as §1

PEK = target: T20, PEK (Homo sapiens, UniProt Q9NZJ5)
T20 construct: purchased Carna Biosciences
T20 sequence (Q9NZJ5 30-1116): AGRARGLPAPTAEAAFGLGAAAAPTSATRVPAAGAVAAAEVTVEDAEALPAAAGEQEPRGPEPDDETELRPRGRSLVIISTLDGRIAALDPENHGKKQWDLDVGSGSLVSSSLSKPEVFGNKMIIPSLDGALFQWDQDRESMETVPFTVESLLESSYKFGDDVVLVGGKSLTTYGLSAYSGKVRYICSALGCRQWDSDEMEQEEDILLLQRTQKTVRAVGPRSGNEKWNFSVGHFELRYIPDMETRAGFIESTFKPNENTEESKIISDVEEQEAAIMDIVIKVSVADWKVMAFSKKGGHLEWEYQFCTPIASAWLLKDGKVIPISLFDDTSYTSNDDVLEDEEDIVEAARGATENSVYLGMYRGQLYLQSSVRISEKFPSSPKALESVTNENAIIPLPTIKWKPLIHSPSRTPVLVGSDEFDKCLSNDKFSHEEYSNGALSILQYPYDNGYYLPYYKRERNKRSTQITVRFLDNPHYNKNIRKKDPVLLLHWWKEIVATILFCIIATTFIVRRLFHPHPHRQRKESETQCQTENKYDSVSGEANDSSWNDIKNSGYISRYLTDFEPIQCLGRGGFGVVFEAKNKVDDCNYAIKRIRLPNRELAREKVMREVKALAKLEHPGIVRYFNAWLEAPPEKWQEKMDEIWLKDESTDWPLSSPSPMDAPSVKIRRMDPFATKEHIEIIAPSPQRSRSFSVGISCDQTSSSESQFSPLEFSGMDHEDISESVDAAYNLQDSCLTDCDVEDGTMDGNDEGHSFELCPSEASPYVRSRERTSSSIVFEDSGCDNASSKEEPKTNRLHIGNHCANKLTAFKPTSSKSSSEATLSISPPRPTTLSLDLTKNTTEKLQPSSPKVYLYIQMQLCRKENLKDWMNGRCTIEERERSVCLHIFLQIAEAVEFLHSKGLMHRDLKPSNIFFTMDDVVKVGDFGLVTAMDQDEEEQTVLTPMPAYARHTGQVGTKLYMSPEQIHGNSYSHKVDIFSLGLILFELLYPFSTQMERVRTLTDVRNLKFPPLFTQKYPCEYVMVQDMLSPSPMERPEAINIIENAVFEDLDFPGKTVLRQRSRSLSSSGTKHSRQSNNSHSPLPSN
How it was run: as §1

DDR1 = target: T21, DDR1 (Homo sapiens, UniProt Q08345)
T21 construct: purchased Carna Biosciences
How it was run: as §2

AurA = target: T22, AurA (Homo sapiens, UniProt O14965)
T22 construct: purchased Carna Biosciences
T22 sequence (O14965 whole entry): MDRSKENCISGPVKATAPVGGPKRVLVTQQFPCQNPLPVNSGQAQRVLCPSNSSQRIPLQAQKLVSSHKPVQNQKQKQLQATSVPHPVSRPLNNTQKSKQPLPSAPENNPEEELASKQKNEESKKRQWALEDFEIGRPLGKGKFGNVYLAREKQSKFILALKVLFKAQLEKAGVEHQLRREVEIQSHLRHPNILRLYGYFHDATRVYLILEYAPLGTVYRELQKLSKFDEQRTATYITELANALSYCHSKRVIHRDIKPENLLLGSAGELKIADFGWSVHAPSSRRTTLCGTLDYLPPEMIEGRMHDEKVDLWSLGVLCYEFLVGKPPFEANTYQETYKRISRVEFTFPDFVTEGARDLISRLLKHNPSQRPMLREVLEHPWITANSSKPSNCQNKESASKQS
How it was run: as §1

BTK = target: T23, BTK (Homo sapiens, UniProt Q06187)
T23 construct: purchased Carna Biosciences
How it was run: as §1

GSK3a = target: T24, GSK3a (Homo sapiens, UniProt P49840)
T24 construct: purchased Carna Biosciences
How it was run: as §1

RSK4 = target: T25, RSK4 (Homo sapiens, UniProt Q9UK32)
T25 construct: purchased Carna Biosciences
How it was run: as §1

ROCK1 = target: T26, ROCK1 (Homo sapiens, UniProt Q13464)
T26 construct: purchased Carna Biosciences
T26 sequence (Q13464 whole entry): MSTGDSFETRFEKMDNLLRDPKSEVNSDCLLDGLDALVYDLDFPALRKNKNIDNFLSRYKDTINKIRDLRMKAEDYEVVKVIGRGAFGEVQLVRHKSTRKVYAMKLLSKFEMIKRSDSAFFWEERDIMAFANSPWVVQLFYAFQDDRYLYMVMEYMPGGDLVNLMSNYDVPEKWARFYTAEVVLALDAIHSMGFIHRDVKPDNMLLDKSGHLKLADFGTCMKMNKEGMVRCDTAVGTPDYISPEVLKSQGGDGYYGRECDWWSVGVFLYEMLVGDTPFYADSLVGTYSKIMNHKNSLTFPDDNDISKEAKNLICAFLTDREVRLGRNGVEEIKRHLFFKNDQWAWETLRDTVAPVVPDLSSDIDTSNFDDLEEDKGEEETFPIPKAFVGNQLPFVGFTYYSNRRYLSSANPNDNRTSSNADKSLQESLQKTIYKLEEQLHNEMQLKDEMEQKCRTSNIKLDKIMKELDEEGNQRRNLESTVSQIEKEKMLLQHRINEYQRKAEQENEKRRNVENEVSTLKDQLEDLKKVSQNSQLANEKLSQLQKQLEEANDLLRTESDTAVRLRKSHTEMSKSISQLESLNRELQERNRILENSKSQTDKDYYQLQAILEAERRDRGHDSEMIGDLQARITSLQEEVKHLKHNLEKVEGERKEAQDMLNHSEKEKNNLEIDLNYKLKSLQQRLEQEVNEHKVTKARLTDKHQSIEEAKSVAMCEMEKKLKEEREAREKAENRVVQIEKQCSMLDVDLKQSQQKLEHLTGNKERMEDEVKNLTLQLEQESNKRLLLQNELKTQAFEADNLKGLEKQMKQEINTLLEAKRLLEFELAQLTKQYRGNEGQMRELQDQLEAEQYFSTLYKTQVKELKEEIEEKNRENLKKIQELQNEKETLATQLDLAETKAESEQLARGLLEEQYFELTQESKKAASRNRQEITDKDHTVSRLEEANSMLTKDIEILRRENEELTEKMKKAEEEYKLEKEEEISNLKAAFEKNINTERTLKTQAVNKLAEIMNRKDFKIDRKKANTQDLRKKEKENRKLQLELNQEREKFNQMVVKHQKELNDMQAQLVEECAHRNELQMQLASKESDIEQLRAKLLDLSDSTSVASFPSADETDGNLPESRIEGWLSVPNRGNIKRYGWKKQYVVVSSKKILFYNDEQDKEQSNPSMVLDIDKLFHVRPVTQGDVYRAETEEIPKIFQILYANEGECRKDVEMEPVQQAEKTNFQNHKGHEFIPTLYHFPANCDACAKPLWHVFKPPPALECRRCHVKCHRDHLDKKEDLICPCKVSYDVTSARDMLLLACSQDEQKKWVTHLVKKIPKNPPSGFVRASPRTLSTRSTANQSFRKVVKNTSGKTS
How it was run: as §1

MINK = target: T27, MINK (Homo sapiens, UniProt Q8N4C8)
T27 construct: purchased Carna Biosciences
How it was run: as §1

AMPKa1 = target: T28, AMPKa1 (Homo sapiens, UniProt Q13131)
T28 construct: purchased Carna Biosciences
How it was run: as §1

SGK2 = target: T29, SGK2 (Homo sapiens, UniProt Q9HBY8)
T29 construct: purchased Carna Biosciences
How it was run: as §1

PYK2 = target: T30, PYK2 (Homo sapiens, UniProt Q14289)
T30 construct: purchased Carna Biosciences
How it was run: as §1

MET[Y1235D] = target: T31, MET[Y1235D] (Homo sapiens, UniProt P08581, Y1235D)
T31 construct: purchased Carna Biosciences
How it was run: as §1

EGFR[T790M] = target: T32, EGFR[T790M] (Homo sapiens, UniProt P00533, T790M)
T32 construct: purchased Carna Biosciences
How it was run: as §1

MET = target: T33, MET (Homo sapiens, UniProt P08581)
T33 construct: purchased Carna Biosciences
How it was run: as §1

MST4 = target: T34, MST4 (Homo sapiens, UniProt Q9P289)
T34 construct: purchased Carna Biosciences
How it was run: as §1

BMPR1A = target: T35, BMPR1A (Homo sapiens, UniProt P36894)
T35 construct: purchased Carna Biosciences
How it was run: as §1

FGFR3[K650M] = target: T36, FGFR3[K650M] (Homo sapiens, UniProt P22607, K650M)
T36 construct: purchased Carna Biosciences
How it was run: as §2

PIM2 = target: T37, PIM2 (Homo sapiens, UniProt Q9P1W9)
T37 construct: purchased Carna Biosciences
How it was run: as §1

RET = target: T38, RET (Homo sapiens, UniProt P07949)
T38 construct: purchased Carna Biosciences
How it was run: as §2

EphB2 = target: T39, EphB2 (Homo sapiens, UniProt P29323)
T39 construct: purchased Carna Biosciences
How it was run: as §1

TRKC = target: T40, TRKC (Homo sapiens, UniProt Q16288)
T40 construct: purchased Carna Biosciences
How it was run: as §1

FGFR3[K650E] = target: T41, FGFR3[K650E] (Homo sapiens, UniProt P22607, K650E)
T41 construct: purchased Carna Biosciences
How it was run: as §2

FLT3 = target: T42, FLT3 (Homo sapiens, UniProt P36888)
T42 construct: purchased Carna Biosciences
How it was run: as §2

SRPK2 = target: T43, SRPK2 (Homo sapiens, UniProt P78362)
T43 construct: purchased Carna Biosciences
How it was run: as §2

SMILES: CC[C@H](Nc1nc(NCc2cnc(C)cc2C)c2ncn(C(C)C)c2n1)[C@@H](C)O [Fadraciclib, 2-pentanol, 3-[[6-[[(4,6-dimethyl-3-pyridinyl)methyl]amino]-9-(1-methylethyl)-9Hpurin-2-yl]amino]-, (2R,3S)]
- inhibition at 1 µM (LYNb): -8.7 ± 0.1%
- inhibition at 1 µM (BRSK1): -11.5 ± 0.1%
- inhibition at 1 µM (MAP3K4): 7.6 ± 0.1%
- inhibition at 1 µM (PKR): 1.1%
- inhibition at 1 µM (PDGFRb): 3.2 ± 0.1%
- inhibition at 1 µM (PKN1): -17.7 ± 0.1%
- inhibition at 1 µM (CLK2): 87.8 ± 2%
- inhibition at 1 µM (AXL): -11.1 ± 0.1%
- inhibition at 1 µM (FAK): 23.4 ± 2.9%
- inhibition at 1 µM (ZAP70): -11.6 ± 0.3%
- inhibition at 1 µM (GSK3b): 23.8 ± 1%
- inhibition at 1 µM (IRAK4): -10.1 ± 0.1%
- inhibition at 1 µM (BMX): 6.6 ± 0.3%
- inhibition at 1 µM (JAK1): -3.1%
- inhibition at 1 µM (EphA1): 5.1%
- inhibition at 1 µM (TIE2): 2.9 ± 0.2%
- inhibition at 1 µM (AMPKa2): -12.8 ± 0.7%
- inhibition at 1 µM (CDK6): 27 ± 0.9%
- inhibition at 1 µM (RON): 1.6 ± 0.1%
- inhibition at 1 µM (PEK): 0.3%
- inhibition at 1 µM (DDR1): -9.3 ± 0.1%
- inhibition at 1 µM (AurA): -16.2 ± 0.4%
- inhibition at 1 µM (BTK): 5.3 ± 0.4%
- inhibition at 1 µM (GSK3a): 19.3 ± 1.3%
- inhibition at 1 µM (RSK4): 6 ± 0.2%
- inhibition at 1 µM (ROCK1): -1.3%
- inhibition at 1 µM (MINK): -15.8 ± 0.3%
- inhibition at 1 µM (AMPKa1): -3.8%
- inhibition at 1 µM (SGK2): 0.9%
- inhibition at 1 µM (PYK2): 11.7 ± 0.2%
- inhibition at 1 µM (MET[Y1235D]): 2.4 ± 0.1%
- inhibition at 1 µM (EGFR[T790M]): -9.6 ± 0.1%
- inhibition at 1 µM (MET): -8.3 ± 0.1%
- inhibition at 1 µM (MST4): -2.1%
- inhibition at 1 µM (BMPR1A): 2.2%
- inhibition at 1 µM (FGFR3[K650M]): 3.2 ± 0.1%
- inhibition at 1 µM (PIM2): 2.9 ± 0.2%
- inhibition at 1 µM (RET): 3.4 ± 0.1%
- inhibition at 1 µM (EphB2): 5 ± 0.2%
- inhibition at 1 µM (TRKC): 7.2 ± 0.3%
- inhibition at 1 µM (FGFR3[K650E]): 5.6%
- inhibition at 1 µM (FLT3): -8.7 ± 0.1%
- inhibition at 1 µM (SRPK2): -3.8 ± 0.1%

Source: PMC7347136 (PLoS ONE, 2020)
